# According to US12227747B2, “Composition comprising aptamer as active ingredient for treatment and prevention of degenerative brain disease” (Nexmos Co., LTD, priority 2018, dated 2025):
# How the values were obtained:
# [1] = Fluorescence-based microplate assay (OPDA) of ascorbic acid oxidation; assay type: physicochemical
# Text: (§1) FIGS. 4-5 is a diagram showing a fluorescence-based microplate assay that inhibits ascorbic acid oxidation, and FIG. 4 is an experimental result using OPDA, a substance that becomes fluorescent by binding to DHA. […] FIG. 5 is a comparison of the antioxidant activity of remaining ascorbic acid using DCPIP after AptaminC3T31+ascorbic acid and ascorbic acid were left for 8 weeks under the same conditions. AptaminC3T31+ascorbic acid maintained 50% antioxidant activity even after 8 weeks,
# The oxidation of ascorbic acid was measured in reverse with detecting the oxidized product dehydroascorbic acid (DHA) with modifying a method described in Vislisel et al. (Vislisel, J. M. Schafer, F. O. and Buettner, G. R. (2007) Analytical biochemistry, 365, 31-39).
# Briefly, aptamers were incubated with AA (10.3 μM) at 4× concentration for 30 minutes at room temperature before addition of 25 μM H2O2 (Sigma). Before the addition of OPDA dye (Sigma), the oxidizing agent sample was added and incubated at room temperature for 10 minutes. Immediately after addition of the dye (954.6 μM) sample, and read at excitation 345 nm; emission: 425 nm with a SpectraMax® plate reader (Molecular Devices) for 45 minutes at intervals of 60 seconds until the control converges. […] All fluorescence assays were performed in black 384-well plates (greiner bio-one). […]
# [2] = Storage of vitamin C with aptamer at room temperature for 8 weeks, reducing activity by DCPIP; assay type: physicochemical; details: FIG. 5
# Text: as §1
# The aptamin C of the present invention was maintained at room temperature for 8 weeks and the reducing activity of ascorbic acid was measured using DCPIP (2,6-Dichlorophenolindophenol).
# [3] = ITC (Isothermal Titration calorimetry) of the aptamer binding to ascorbic acid; details: FIG. 7, read-out: binding affinity between the aptamer and ascorbic acid
substance,measurement,setting,value
"AptaminC3T31: DNA aptamer binding vitamin C (ascorbic acid); SEQ ID NO: 1, GTGGAGGCGGTGGCCAGTCTCGCGGTGGCGGC (DNA GTGGAGGCGGTGGCCAGTCTCGCGGTGGCGGC; listed as DNA, chemistry not given here)",oxidation of ascorbic acid (DHA detected with OPDA fluorescence),"[1]; ascorbic acid treated with hydrogen peroxide, FIG. 4",oxidation of ascorbic acid is prevented
same,ability to protect AA from oxidation,[1]; screen of top 20 candidate aptamers from SELEX,best effect
same,increase of shelf life compared to ascorbic acid alone,[2],≥ 4 times
same,Kd,[3],900 nM
